Measured values: patent publication US20180318311A1, “TRICYCLIC 2-QUINOLINONES AS ANTIBACTERIALS” (priority 2017, published 2018)
Values after ≈ are worked out from the molar mass of the structure shown. Where two headings read alike, the source gives them in different places.

How the values were obtained:
Assay type in all cases: cell-based
[1] = system: S. pneumoniae ATCC 25922 (NB07001); experiment: MIC by broth microdilution, S. pneumoniae NB07001; conditions: Streptococcus pneumoniae, read-out: Antibacterial activity (MIC) NB07001
Method: (§1) Bacterial isolates were cultivated from −80° C. frozen stocks by overnight passages at 35° C. in ambient air on Mueller-Hinton agar plates (MHA, Becton Dickinson, Franklin Lakes, NB) with the exception of S. pneumoniae which was grown overnight at 35° C. in the presence of 5% CO2 on blood agar plates (tryptic soy agar with 5% sheep blood (Thermo Scientific, Waltham, Mass.) . The following quality control and wild type strains were obtained from the American Type Culture Collection (ATCC; Rockville, Md.) and are coded in the Novartis strain collection as indicated: E. coli ATCC 25922 (NB27001), E. faecalis ATCC 29212 (NB04001), S. aureus ATCC 49951 (NB01006) and S. pneumoniae ATCC […] (NB07001). […] P. aeruginosa NB52019, obtained from Queen's University (Kingston, Ontario, Canada), is the wild-type PAO1 strain.
(§2) Minimal Inhibitory Concentrations (MIC) were determined by the broth microdilution method in accordance with Clinical and Laboratories Institute (CLSI) guidelines. In brief, fresh bacterial overnight cultures were re-suspended in sterile saline, adjusted to a 0.5 McFarland turbidity standard and then diluted to yield a final inoculum of approximately 5×10^5 colony-forming units (CFU)/mL. All bacterial suspensions were prepared in cation adjusted Mueller-Hinton Broth (CAMHB; Becton Dickinson, Franklin Lakes, N.J.;) with the exception of S. pneumoniae which was prepared in CAMHB supplemented with 5% lysed horse blood (Hardy Diagnostics, Santa Maria, Calif.). Two-fold serial dilutions of compounds were prepared in 100% dimethyl sulfoxide (DMSO) at 100-fold the highest final assay concentration; the resulting dilution series of compounds were diluted 1:10 with sterile water. Ten μL of the drug dilution series in 10% DMSO was transferred to microtiter wells and 90 μL of bacterial suspension was inoculated into the wells. All inoculated microdilution trays were incubated in ambient air at 35° C. for 20 hours. Following incubation, assay plates were read in a microtiter plate reader at 600 nm and visually inspected to confirm the MIC endpoint well with the OD value. The lowest concentration of the compound that prevented visible growth was recorded as the MIC (in μg/mL).

[2] = system: S. aureus ATCC 49951 (NB01006); experiment: MIC by broth microdilution, S. aureus NB01006; conditions: Staphylococcus aureus, ATCC49951, CAMHB, 35° C., 20 hours, read-out: Antibacterial activity (MIC) NB01006
Method: as §1, §2

[3] = system: S. aureus NB01080 fluoroquinolone-resistant clinical isolate; experiment: MIC by broth microdilution, S. aureus NB01080; conditions: Staphylococcus aureus, CAMHB, 35° C., 20 hours, read-out: Antibacterial activity (MIC) NB01080
Method: as §1, §2

[4] = system: S. aureus NB01006-AVR005, gyrA (S84L), grlA (580F) and grlB (E471K); experiment: microbe, parasite or virus in culture; conditions: Staphylococcus aureus, 20 h, read-out: Antibacterial activity (MIC) NB01006-AVR005
Method: as §1, §2

[5] = system: E. faecalis ATCC 29212 (NB04001); experiment: MIC by broth microdilution, E. faecalis NB04001; conditions: Enterococcus faecalis, ATCC29212, CAMHB, 35° C., 20 hours, read-out: Antibacterial activity (MIC) NB04001
Method: as §1, §2

[6] = system: P. aeruginosa NB52019, wild-type PAO1 strain; experiment: MIC by broth microdilution, P. aeruginosa NB52019; conditions: Pseudomonas aeruginosa, CAMHB, 35° C., 20 hours, read-out: Antibacterial activity (MIC) NB52019
Method: as §1, §2

[7] = system: E. coli ATCC 25922 (NB27001); experiment: MIC by broth microdilution, E. coli NB27001; conditions: Escherichia coli, ATCC25922, CAMHB, 35° C., 20 hours, read-out: Antibacterial activity (MIC) NB27001
Method: as §1, §2

[8] = ATCC25922, S. pneumoniae, CAMHB supplemented with 5% lysed horse blood, 35° C., 20 hours

SMILES | MIC ([1]; ATCC25922, 20 h) [µg/mL] | MIC [2] [µg/mL] | MIC [3] [µg/mL] | MIC [4] [µg/mL] | MIC [5] [µg/mL] | MIC [6] [µg/mL] | MIC [7] [µg/mL] | MIC [1, 8] [µg/mL]
C[C@H]1COc2c(N3CCC(CNC4CC4)C3)c(F)cc3cc(C(=O)O)c(=O)n1c23 (mixture of isomers) [Example 1.11, (3S)-10-(3-((cyclopropylamino)methyl)pyrrolidin-1-yl)-9-fluoro-3-methyl-5-oxo-2,3-dihydro-5H-[1,4]oxazino[2,3,4-ij]quinoline-6-carboxylic acid] | < 1 | 1 to 32 | 1 to 32 | > 32 | 1 to 32 | > 32 | 1 to 32 | –
C[C@H]1COc2c(N3CC4C(N)C4C3)c(F)cc3cc(C(=O)O)c(=O)n1c23 (mixture of isomers) [Example 1.38, (3S)-10-(6-amino-3-azabicyclo[3.1.0]hexan-3-yl)-9-fluoro-3-methyl-5-oxo-2,3-dihydro-5H-[1,4]oxazino[2,3,4-ij]quinoline-6-carboxylic acid] | 1 to 32 | < 1 | 1 to 32 | > 32 | 1 to 32 | 1 to 32 | < 1 | –
C[C@H]1COc2c(N3CCC(C4CC4N)CC3)c(F)cc3cc(C(=O)O)c(=O)n1c23 (mixture of isomers) [Example 1.64, (3S)-10-(4-(2-aminocyclopropyl)piperidin-1-yl)-9-fluoro-3-methyl-5-oxo-2,3-dihydro-5H-[1,4]oxazino[2,3,4-ij]quinoline-6-carboxylic acid] | 1 to 32 | 1 to 32 | > 32 | > 32 | 1 to 32 | > 32 | > 32 | –
C[C@H]1COc2c(N3CCC4NCCCC4C3)c(F)cc3cc(C(=O)O)c(=O)n1c23 (mixture of isomers) [Example 1.65, (3S)-9-fluoro-3-methyl-10-(octahydro-1,6-naphthyridin-6(2H)-yl)-5-oxo-2,3-dihydro-5H-[1,4]oxazino[2,3,4-ij]quinoline-6-carboxylic acid] | 1 to 32 | 1 to 32 | > 32 | > 32 | > 32 | > 32 | 1 to 32 | –
C[C@H]1COc2c(N3CC4C(C3)C4N(C)C)c(F)cc3cc(C(=O)O)c(=O)n1c23 (mixture of isomers) [Example 1.69, (3S)-10-(6-(dimethylamino)-3-azabicyclo[3.1.0]hexan-3-yl)-9-fluoro-3-methyl-5-oxo-2,3-dihydro-5H-[1,4]oxazino[2,3,4-ij]quinoline-6-carboxylic acid] | 1 to 32 | 1 to 32 | > 32 | > 32 | > 32 | > 32 | > 32 | –
C[C@H]1COc2c(N3CCCC4(CCN(C)C4)C3)c(F)cc3cc(C(=O)O)c(=O)n1c23 (mixture of isomers) [Example 1.70, (3S)-9-fluoro-3-methyl-10-(2-methyl-2,7-diazaspiro[4.5]decan-7-yl)-5-oxo-2,3-dihydro-5H-[1,4]oxazino[2,3,4-ij]quinoline-6-carboxylic acid] | 1 to 32 | 1 to 32 | > 32 | > 32 | > 32 | > 32 | > 32 | –
C[C@H]1COc2c(N3CCCC4(CCNC4)C3)c(F)cc3cc(C(=O)O)c(=O)n1c23 (mixture of isomers) [Example 1.71, (3S)-9-fluoro-3-methyl-5-oxo-10-(2,7-diazaspiro[4.5]decan-7-yl)-2,3-dihydro-5H-[1,4]oxazino[2,3,4-ij]quinoline-6-carboxylic acid] | > 32 | > 32 | > 32 | > 32 | > 32 | > 32 | > 32 | –
O=C(O)c1cn(C2CC2)c2cc(N3CCNCC3)c(F)cc2c1=O [CIP, Ciprofloxacin, reference compound] | < 1 | < 1 | – | – | < 1 | < 1 | < 1 | –
COC(=O)c1cc2cc(F)c(N3CC[C@@H](C4(N)CC4)C3)c3c2n(c1=O)[C@@H](C)CO3 [Example 1.7, Methyl (S)-10-((R)-3-(1-aminocyclopropyl)pyrrolidin-1-yl)-9-fluoro-3-methyl-5-oxo-2,3-dihydro-5H-[1,4]oxazino[2,3,4-ij]quinoline-6-carboxylate] | < 1 | < 1 | < 1 | 1 to 32 (≈ 2.49 to 79.7 µM) | < 1 | – | > 32 | –
C[C@H]1COc2c(N3CCC(F)(CN)C3)c(F)cc3c(CN)cc(=O)n1c23.O=C(O)C(F)(F)F (stereo partly drawn) [Example 7.1, (3S)-7-(aminomethyl)-10-(3-(aminomethyl)-3-fluoropyrrolidin-1-yl)-9-fluoro-3-methyl-2,3-dihydro-5H-[1,4]oxazino[2,3,4-ij]quinolin-5-one trifluoroacetate salt] | – | – | 1 to 32 | 1 to 32 | – | 1 to 32 | 1 to 32 | < 1
C[C@H]1COc2c(N3CC[C@H](N)C3)c(F)cc3c(CN)cc(=O)n1c23 [Example 7.2, (S)-7-(aminomethyl)-10-((S)-3-aminopyrrolidin-1-yl)-9-fluoro-3-methyl-2,3-dihydro-5H-[1,4]oxazino[2,3,4-ij]quinolin-5-one] | 1 to 32 (≈ 3.01 to 96.3 µM) | – | > 32 | 1 to 32 (≈ 3.01 to 96.3 µM) | – | 1 to 32 (≈ 3.01 to 96.3 µM) | 1 to 32 (≈ 3.01 to 96.3 µM) | –
C[C@@H]1COc2c(N3CCC(F)(CN)C3)c(F)cc3c(CN)cc(=O)n1c23 (stereo partly drawn) [Example 7.3, (3R)-7-(aminomethyl)-10-(3-(aminomethyl)-3-fluoropyrrolidin-1-yl)-9-fluoro-3-methyl-2,3-dihydro-5H-[1,4]oxazino[2,3,4-ij]quinolin-5-one] | > 32 | – | > 32 | > 32 | – | > 32 | > 32 | –
C[C@@H]1COc2c(N3CCNCC3)c(F)cc3c(CN)cc(=O)n1c23 [Example 7.4, (R)-7-(aminomethyl)-9-fluoro-3-methyl-10-(piperazin-1-yl)-2,3-dihydro-5H-[1,4]oxazino[2,3,4-ij]quinolin-5-one] | – | – | > 32 | > 32 | – | > 32 | > 32 | > 32
NCc1cc(=O)n2c3c(c(N4CCC(F)(CN)C4)c(F)cc13)OCC2 (stereo not shown) [Example 7.5, 7-(aminomethyl)-10-(3-(aminomethyl)-3-fluoropyrrolidin-1-yl)-9-fluoro-2,3-dihydro-5H-[1,4]oxazino[2,3,4-ij]quinolin-5-one] | > 32 | – | > 32 | > 32 | – | > 32 | > 32 | –
N#Cc1cc(=O)n2c3c(c(N4CCC(F)(CN)C4)c(F)cc13)OCC2 (stereo not shown) [Example 7.6, 10-(3-(aminomethyl)-3-fluoropyrrolidin-1-yl)-9-fluoro-5-oxo-2,3-dihydro-5H-[1,4]oxazino[2,3,4-ij]quinoline-7-carbonitrile] | > 32 | – | 1 to 32 (≈ 2.89 to 92.4 µM) | > 32 | – | > 32 | > 32 | –
NCc1cc(=O)n2c3c(c(N4CCNCC4)c(F)cc13)OCC2 [Example 7.7, 7-(aminomethyl)-9-fluoro-10-(piperazin-1-yl)-2,3-dihydro-5H-[1,4]oxazino[2,3,4-ij]quinolin-5-one] | – | – | > 32 | > 32 | – | > 32 | > 32 | > 32
N#Cc1cc(=O)n2c3c(c(N4CCNCC4)c(F)cc13)OCC2 [Example 7.8, 9-fluoro-5-oxo-10-(piperazin-1-yl)-2,3-dihydro-5H-[1,4]oxazino[2,3,4-ij]quinoline-7-carbonitrile] | – | – | > 32 | > 32 | – | > 32 | > 32 | > 32
